From patent publication US8324188B2, “Combinations of ET-18-O-CH3and anti-cancer agents for the treatment of cancer” (priority 2006, dated 2012)
“And” between values parts separate entries of the source, which are not always exact repeats. Equal values may be shown once.

Assays:
[1] = tested on: U87MG; experiment: WST-1 proliferation assay, U87MG; assay type: cell-based, human
Protocol: (§1) AP-121 was prepared as 5 mM stock solution in distilled sterile water, Temozolomide (TMZ) (Haorui Pharma-Chem, Inc., Edison, N.J.) was prepared as 100 mM in sterile filtrated DMSO; Adriamycin (ADR) (Sigma) was prepared as 1 mM in distilled sterile water; Camptothecin (CTP) (Sigma) was prepared as 10 mM solution in 0.1 N NaOH; Tarceva (Proteinkinase, Germany) was prepared as 5 mM solution in sterile DMSO. All compound stocks were kept at −20° C. 2000 cells were plated in each well of 96-well flat bottom plates, and incubated overnight at 37 °C in 5% CO2. The growth of plated cells was measured by adding […] of WST-1 reagent (Roche Applied Sciences, Germany) to 3 control wells and measuring the absorbance at 650 nm and at 450 nm, respectively, with a SpectraMax250 plate reader. […] After this incubation, VVST-1 reagent was added to the wells and OD650-OD450 values were calculated as before. six wells were assayed for each conditions and standard deviation was determined: all experiments were performed at least three times independently. […] Six different concentrations of each drug were used in combinations index measurements and compared to +/− cells, and compared to controls without compound.

[2] = tested on: A172; experiment: WST-1 proliferation assay, A172; assay type: cell-based, human
Protocol: as §1

[3] = tested on: A549 (FAS negative); experiment: WST-1 proliferation assay, A549; assay type: cell-based, human; conditions: single agent, per experiment line
Protocol: (§2) 2000 cells were plated in each well of 96-well flat bottom plates, and incubated overnight at 37 °C in 5% CO2. The growth of plated cells was measured by adding […] of WST-1 reagent (Roche Applied Sciences, Germany) to 3 control wells and measuring the absorbance at 650 nm and at 450 nm, respectively, with a SpectraMax250 plate reader. […] After this incubation, VVST-1 reagent was added to the wells and OD650-OD450 values were calculated as before. six wells were assayed for each conditions and standard deviation was determined: all experiments were performed at least three times independently. […] DDP and GMZ were both purchased from Sigma-aldrich Corp., St. Louis, Mo., USA. The following cell lines were used: A549 (FAS negative), NCI-H460 (FAS positive), and HCC827 (FAS positive), all obtained from the ATTC, Rockville, Md., USA.

[4] = tested on: NCI-H460 (FAS positive); experiment: WST-1 proliferation assay, NCI-H460; assay type: cell-based, human; conditions: single agent, per experiment line
Protocol: as §2

[5] = tested on: HCC827 (FAS positive); experiment: WST-1 proliferation assay, HCC827; assay type: cell-based, human; conditions: single agent, per experiment line
Protocol: as §2

[6] = tested on: LNCaP cells; experiment: flow cytometric analysis of annexin V-PE positive / 7-AAD negative LNCaP cells; assay type: cell-based, human
Protocol: In a further approach, 10 μM 1-O-octadecyl-2-O-methyl-glycero-3-phosphocholine (final concentration; “CHEM”) and (ionizing) radiation (5 Gray units; “RT”) were administered simultaneously to the LNCaP cells but the subsequent incubation period was extended to 24 hours. Apoptosis was measured using the Apo-ONE™ Homogenous Caspase-3/7 Assay as described above and expressed as relative fluorescence units (RFLU). The percentage of apoptotic cells was determined by flow cytometric analysis of annexin V-PE positive-stained and 7-AAD (7-Amino ActinomycinD) negative-stained cells (both purchased from BD Biosciences, San Jose, Calif., USA) according to established standard protocols. The data represent means±SEM from three independent experiments.
Next, the interaction of 1-O-octadecyl-2-O-methyl-glycero-3-phosphocholine administration (“CHEM”) and androgen deprivation (“AD”) was investigated. LNCaP cells were deprived of androgen for two days by charcoal absorption of serum according to established procedures well known in the art. CHEM was added in a final concentration of 5 μM and 10 μM, respectively.
Apoptosis was measured using the Apo-ONE™ Homogenous Caspase-3/7 Assay as described above and expressed as relative fluorescence units (RFLU). The percentage of apoptotic cells was determined via annexin V-PE/7-AAD staining as described above. The caspase-317 assay and annexin staining were performed 22 hours after CHEM treatment.

[7] = tested on: androgen-insensitive LNCaP C4-2; experiment: apoptosis in LNCaP C4-2 cells; assay type: cell-based, human; conditions: data not shown
[8] = tested on: androgen-insensitive LNCaP-Res cells; experiment: apoptosis in LNCaP-Res cells; assay type: cell-based, human; conditions: data not shown
[9] = tested on: A431; conditions: mean ± SD from three independent experiments, read-out: ED50 values for induction of apoptosis; cited from earlier work
[10] = tested on: HeLa; conditions: mean ± SD from three independent experiments, read-out: ED50 values for induction of apoptosis; cited from earlier work
[11] = tested on: HMEC1 endothelial cells; conditions: cited from earlier work

Compound `CCCCCCCCCCCCCCCCCCOCC(COP(=O)([O-])OCC[N+](C)(C)C)OC` (racemic) [AP-121, 1-O-octadecyl-2-O-methyl-glycero-3-phosphocholine] has an IC50 ([1]; Homo sapiens, U-87 MG) of 8.5 µM, an EC50 ([1]; Homo sapiens, U-87 MG, single agent or compound mixture as labelled (arrays A2, A1), read-out: ED50 (the source's name)) of 6.8 µM and a normalized ED50 (arrays B2, B1) ([1]; ratio to the largest value) of 1. For the same compound, the IC50 ([2]; Homo sapiens, A 172) was 4.6 µM, the EC50 ([2]; Homo sapiens, A 172, single agent or compound mixture as labelled (arrays A2, A1), read-out: ED50 (the source's name)) was 4.2 µM and the normalized ED50 (arrays B2, B1) ([2]; ratio to the largest value) was 0.62. For the same compound, the IC50 ([3]; A549) was 6 µM and 6.9 µM, the IC50 ([3]; Homo sapiens, A549, A549) was 8 µM and the IC50 ([4]; Homo sapiens, NCI-H460, NCI-H460) was 1.5 µM. The IC50 ([4]; NCI-H460) was 1.4 µM and 2 µM, the IC50 [5] was 2.4 µM and 0.85 µM and 1.6 µM and the “% Annexin V-PE pos. cells” value ([6]; AD (androgen deprivation, two days) + 5 μM CHEM, AD alone 12.6) was 15.4%. The “% Annexin V-PE pos. cells” value ([6]; AD + 10 μM CHEM) was 27.4%, the “% Annexin V-PE pos. cells” value ([6]; AD + R1881 (two days prior) + 5 μM CHEM) was 14.6% and the “% Annexin V-PE pos. cells” value ([6]; AD + R1881 (two days prior) + 10 μM CHEM) was 21.6%. For the same compound, the “% Annexin V-PE pos. cells” value ([6]; CHEM 10 μM + RT 5 Gray simultaneously, 24 hours, means±SEM, p < 0.0001 vs CHEM and RT) was 31.7 ± 1.0 %, the “% Annexin V-PE pos. cells” value ([6]; CHEM 10 μM alone, 24 hours, means±SEM, three experiments, Control 3.6 ± 0.2) was 18.6 ± 1.0% and the “% Annexin V-PE pos. cells” value ([6]; Contr. + 5 μM CHEM, 22 hours after CHEM, Contr. 9.6) was 13.0%. The “% Annexin V-PE pos. cells” value ([6]; Contr. + 10 μM CHEM, 22 hours after CHEM) was 17.5%, the apoptotic response ([6]; androgen-deprived LNCaP cells, 5 and 10 μM, not reversed by synthetic androgen) was “dose-dependent significant increase” and the “apoptosis in CHEM+RT treated cells” value [7] was “enhancement of apoptosis”. The “apoptosis in CHEM+RT treated cells” value [8] was “enhancement of apoptosis”, the EC50 [9] was 15.5 ± 2.9 µM and the EC50 [10] was 5.17 ± 1.6 µM. The anti-angiogenic activity [11] was 60 nM.
